Assay results from patent US6855710B2, “Substituted indolines with an inhibitory effect on various kinases and complexes of CDKs” (Boehringer Ingelheim Pharma KG, priority 1998, dated 2005).

Compound	melting point
CN(C)CCNC(=O)c1ccc(N/C(=C2\C(=O)Nc3ccccc32)c2ccccc2)cc1 [Example 390, (Z)-3-{1-[4-(2-dimethylamino-ethylaminocarbonyl)-phenylamino]-1-phenyl-methylidene}-2-indolinone]	145 to 147 °C
CN(C)CCCN(c1cccc(N/C(=C2\C(=O)Nc3ccccc32)c2ccc(CN)cc2)c1)S(C)(=O)=O [Example 424, (Z)-3-{1-[3-(N-(3-dimethylaminopropyl)-N-methylsulphonyl-amino)-phenylamino]-1-(4-aminomethyl-phenyl)-methylidene}-2-indolinone]	197 °C
CN(C)C(=O)C1CCN(Cc2ccc(N/C(=C3\C(=O)Nc4ccc([N+](=O)[O-])cc43)c3ccccc3)cc2)CC1 [Example 249, (Z)-3-{1-[4-(4-dimethylaminocarbonyl-piperidinomethyl)-phenylamino]-1-phenyl-methylidene}-5-nitro-2-indolinone]	272 to 273 °C
CN1C(=O)/C(=C(\Nc2cccc(C#N)c2)c2ccccc2)c2ccccc21 [Example 73, (Z)-1-methyl-3-[1-(3-cyanophenylamino)-1-phenyl-methylidene]-2-indolinone]	158 to 160 °C
CN(c1ccc(N/C(=C2\C(=O)Nc3ccccc32)c2ccccc2)cc1)S(=O)(=O)CCN1CCCCC1 [Example 383, (Z)-3-{1-[4-(N-(2-piperidinoethylsulphonyl)-N-methyl-amino)-phenylamino]-1-phenyl-methylidene}-2-indolinone]	121 to 123 °C
CCOC(=O)CN(c1cccc(N/C(=C2\C(=O)Nc3ccccc32)c2ccccc2)c1)S(C)(=O)=O [Example 317, (Z)-3-{1-[3-(N-ethoxycarbonylmethyl-N-methylsulphonyl-amino)-phenylamino]-1-phenyl-methylidene}-2-indolinone]	188 to 190 °C
CCC(=O)N(CCN1CCOCC1)c1ccc(N/C(=C2\C(=O)Nc3ccccc32)c2ccccc2)cc1 [Example 349, (Z)-3-{1-[4-(N-(2-morpholinoethyl)-N-propionyl-amino)-phenylamino]-1-phenyl-methylidene}-2-indolinone]	228 °C
COCCNC(=O)c1ccc(N/C(=C2\C(=O)Nc3ccccc32)c2ccccc2)cc1 [Example 388, (Z)-3-{1-[4-(2-methoxyethylaminocarbonyl)-phenylamino]-1-phenyl-methylidene}-2-indolinone]	277 to 279 °C
CN(C)CCN(c1cccc(N/C(=C2\C(=O)Nc3ccccc32)c2ccccc2)c1)S(C)(=O)=O [Example 324, (Z)-3-{1-[3-(N-(2-dimethylaminoethyl)-N-methylsulphonyl-amino)-phenylamino]-1-phenyl-methylidene}-2-indolinone]	208 to 211 °C
CC(=O)N(CCCN(C)C)c1ccc(N/C(=C2\C(=O)Nc3ccccc32)c2ccccc2)cc1 [Example 344, (Z)-3-{1-[4-(N-(3-dimethylaminopropyl)-N-acetyl-amino)-phenylamino]-1-phenyl-methylidene}-2-indolinone]	227 °C
CS(=O)(=O)N(CC#N)c1ccc(N/C(=C2\C(=O)Nc3ccccc32)c2ccccc2)cc1 [Example 187, (Z)-3-{1-[4-(N-cyanomethyl-N-methylsulphonyl-amino)-phenyl-amino]-1-phenyl-methylidene}-2-indolinone]	266 to 268 °C
CN(C)CCOc1ccc(N/C(=C2\C(=O)Nc3ccccc32)c2ccccc2)cc1 [Example 284, (Z)-3-{1-[4-(2-dimethylaminoethyloxy)-phenylamino]-1-phenyl-methylidene}-2-indolinone]	258 to 260 °C
CC(=O)Nc1ccc(N/C(=C2\C(=O)Nc3ccc([N+](=O)[O-])cc32)c2ccccc2)cc1 [Example 93, (Z)-3-[1-(4-acetylamino-phenylamino)-1-phenyl-methylidene]-5-nitro-2-indolinone]	328 to 330 °C
COCC(=O)Nc1ccc(N/C(=C2\C(=O)Nc3ccccc32)c2ccccc2)cc1 [Example 40, (Z)-3-[1-(4-methoxymethylcarbonylamino-phenylamino)-1-phenyl-methylidene]-2-indolinone]	238 to 240 °C
CN(C)CCS(=O)(=O)N(C)c1ccc(N/C(=C2\C(=O)Nc3ccccc32)c2ccccc2)cc1 [Example 382, (Z)-3-{1-[4-(N-(2-dimethylamino-ethylsulphonyl)-N-methyl-amino)-phenylamino]-1-phenyl-methylidene}-2-indolinone]	165 to 168 °C
CN(C)CC(=O)N(C)c1ccc(N/C(=C2\C(=O)Nc3ccccc32)c2ccc(CN)cc2)cc1 [Example 430, (Z)-3-{1-[4-(N-dimethylaminomethylcarbonyl-N-methyl-amino)-phenylamino]-1-(4-aminomethyl-phenyl)-methylidene}-2-indolinone]	188 to 190 °C
CN(C)C(=O)CN(c1cccc(N/C(=C2\C(=O)Nc3ccccc32)c2ccc(CN)cc2)c1)S(C)(=O)=O [Example 420, (Z)-3-{1-[3-(N-dimethylaminocarbonylmethyl-N-methylsulphonyl-amino)-phenylamino]-1-(4-aminomethyl-phenyl)-methylidene}-2-indolinone]	220 °C
CCCNCc1ccc(N/C(=C2\C(=O)Nc3ccc([N+](=O)[O-])cc32)c2ccccc2)cc1 [Example 162, (Z)-3-[1-(4-propylaminomethyl-phenylamino)-1-phenyl-methylidene]-5-nitro-2-indolinone]	201 to 202 °C
CC(C)(C)OC(=O)N1CCN(Cc2ccc(N/C(=C3\C(=O)Nc4ccc([N+](=O)[O-])cc43)c3ccccc3)cc2)CC1 [Example 244, (Z)-3-{1-[4-(4-tert.butoxycarbonyl-piperazin-1-ylmethyl)-phenylamino]-1-phenyl-methylidene}-5-nitro-2-indolinone]	236 to 237 °C (dec.)
CN(C)C(=O)CN(c1ccc(N/C(=C2\C(=O)Nc3ccc([N+](=O)[O-])cc32)c2ccccc2)cc1)S(=O)(=O)Cc1ccccc1 [Example 303, (Z)-3-{1-[4-(N-(dimethylaminocarbonylmethyl)-N-benzylsulphonyl-amino)-phenylamino]-1-phenyl-methylidene}-5-nitro-2-indolinone]	159 to 161 °C
CS(=O)(=O)Nc1ccc(N/C(=C2\C(=O)Nc3ccccc32)c2ccccc2)cc1 [Example 185, (Z)-3-[1-(4-methylsulphonylamino-phenylamino)-1-phenyl-methylidene]-2-indolinone]	299 to 301 °C
O=C1Nc2ccc([N+](=O)[O-])cc2/C1=C(/Nc1ccc(NCCN2CCOCC2)cc1)c1ccccc1 [Example 332, (Z)-3-{1-[4-(2-morpholinoethylamino)-phenylamino]-1-phenyl-methylidene}-5-nitro-2-indolinone]	253 °C
CCS(=O)(=O)N(CC(N)=O)c1ccc(N/C(=C2\C(=O)Nc3ccccc32)c2ccccc2)cc1 [Example 299, (Z)-3-{1-[4-(N-aminocarbonylmethyl-N-ethylsulphonyl-amino)-phenylamino]-1-phenyl-methylidene}-2-indolinone]	259 °C
CN(C)CC(=O)NCc1ccc(N/C(=C2\C(=O)Nc3ccc([N+](=O)[O-])cc32)c2ccccc2)cc1 [Example 142, (Z)-3-[1-(4-dimethylaminomethylcarbonylaminomethyl-phenylamino)-1-phenyl-methylidene]-5-nitro-2-indolinone]	272 to 273 °C
